Our source for the inhibition of growth and Observed efficacy values is patent US20150313225A1.

Molecules are shown by their SMILES. Where two headings read alike, the source gives them in different places.

Type in all cases: cell-based
One test has as its system Phytophthora infestans. Briefly: microbe, parasite or virus in culture. The following applies: for Observed efficacy: solo product.
A further test relates to Alternaria solani. Briefly: Microtest against early blight caused by Alternaria solani (Alteso). The settings on record: solo product; for inhibition of growth at 4e-06 ppm: 0.000004 ppm; for inhibition of growth at 6.3e-05 ppm: 0.000063 ppm.
For the next test, the system named is Pyricularia oryzae. Briefly: microbe, parasite or virus in culture. The settings on record: for Observed efficacy: solo product.
A further test relates to Septoria tritici. The test is described as follows: Microtest against leaf blotch on wheat caused by Septoria tritici (Septtr). The settings on record: solo product; for inhibition of growth at 4e-06 ppm: 0.000004 ppm; for inhibition of growth at 1.6e-05 ppm: 0.000016 ppm.
In a further test the test system is Botrytis cinerea. The test is described as follows: Microtiterplate test against the grey mold Botrytis cinerea (Botrci). The settings on record: solo product.
A further test concerns Leptosphaeria nodorum. The test is described as follows: Microtest against wheat leaf spots caused by Leptosphaeria nodorum (Leptno). The following applies: Parastagonospora nodorum, 168 h, solo product, read-out: Observed efficacy.
Setting [1] is: Phytophthora infestans, 168 h, read-out: Observed efficacy.
Where [2] appears, read: Alternaria solani, 168 h, read-out: Observed efficacy.
The mark [3] stands for this setting: Pyricularia oryzae, 168 h, read-out: Observed efficacy.
Setting [4] is: Zymoseptoria tritici, 168 h, read-out: Observed efficacy.
The mark [5] stands for this setting: Zymoseptoria tritici, 168 h, […], read-out: Observed efficacy.
The mark [6] stands for this setting: Botrytis cinerea, 168 h, 0.063 ppm, read-out: Observed efficacy.
Where [7] appears, read: Botrytis cinerea, 168 h, 0.25 ppm, read-out: Observed efficacy.
Setting [8] is: Alternaria solani, 168 h, 0.004 ppm, read-out: Observed efficacy.
[9] abbreviates: Alternaria solani, 168 h, 0.016 ppm, read-out: Observed efficacy.
[10] abbreviates: Zymoseptoria tritici, 168 h, 0.001 ppm, read-out: Observed efficacy.
The mark [11] stands for this setting: Alternaria solani, 168 h, 0.00025 ppm, read-out: Observed efficacy.
The mark [12] stands for this setting: Alternaria solani, 168 h, 0.063 ppm, read-out: Observed efficacy.
[13] abbreviates: Botrytis cinerea, 168 h, read-out: Observed efficacy.
The mark [14] stands for this setting: Alternaria solani, 168 h, 0.25 ppm, read-out: Observed efficacy.
Where [15] appears, read: Botrytis cinerea, 168 h, 4 ppm, read-out: Observed efficacy.
[16] abbreviates: Botrytis cinerea, 168 h, 16 ppm, read-out: Observed efficacy.

In the case of `CC(O)(Cn1cncn1)c1ccc(Oc2ccc(Cl)cc2)cc1Cl` (centres unmarked) [I-17, 2-[2-chloro-4-(4-chlorophenoxy)phenyl]-1-(1,2,4-triazol-1-yl)propan-2-ol], the inhibition of growth at 16 ppm with Phytophthora infestans (setting [1]) was found to be 5%. Also, the results for the inhibition of growth at 4e-06 ppm with Alternaria solani (setting [2]) and in the test on Septoria tritici (setting [4]) were 6% and 12%, respectively. The inhibition of growth at 1.6e-05 ppm in the test on Alternaria solani (Alternaria solani, 168 h, 0.000016 ppm, read-out: Observed efficacy) turned out to be 0%; with Septoria tritici (setting [4]), 19%. In addition, the inhibition of growth at 6.3e-05 ppm in the test with Alternaria solani (setting [2]) turned out to be 0%; in the test on Botrytis cinerea (Botrytis cinerea, 168 h, 0.000063 ppm, read-out: Observed efficacy) it was 9%. Further, the inhibition of growth at 1 ppm in the test with Pyricularia oryzae (setting [3]) was found to be 61%. Further, the inhibition of growth at 1e-06 ppm in the test with Septoria tritici (Zymoseptoria tritici, 168 h, 0.000001 ppm, read-out: Observed efficacy) amounted to 14%. For the same compound, the inhibition of growth at 2.5e-07 ppm in the test on Septoria tritici (setting [5]) came out at 10%. Further, the inhibition of growth at […] in the test on Botrytis cinerea (setting [6]) and in the test on Botrytis cinerea (setting [7]) was 0% in each case.
Turning to `CC(O)(Cn1cncn1)c1ccc(Oc2ccc(F)cc2)cc1Cl` (centres unmarked) [I-18, 2-[2-chloro-4-(4-fluorophenoxy)phenyl]-1-(1,2,4-triazol-1-yl)propan-2-ol], the values for the inhibition of growth at 6.3e-05 ppm in the test on Leptosphaeria nodorum (0.000063 ppm) and with Septoria tritici (setting [5]) were 22% and 0%, respectively. The values for the inhibition of growth at […] in the test on Leptosphaeria nodorum (0.00025 ppm), in the test on Botrytis cinerea (setting [6]) and with Botrytis cinerea (setting [7]) were 26%, 13% and 44%, respectively. In addition, the inhibition of growth at 16 ppm with Phytophthora infestans (setting [1]) amounted to 15%. The inhibition of growth at 63 ppm in the test on Phytophthora infestans (setting [1]) is 19%. In addition, the inhibition of growth at 0.004 ppm with Alternaria solani (setting [8]) came out at 0%. In addition, the inhibition of growth at 0.016 ppm is 7% in the test on Alternaria solani (setting [9]) and 1% in the test with Pyricularia oryzae (setting [3]). In addition, in the test on Pyricularia oryzae (setting [3]), the inhibition of growth at 1 ppm was found to be 5%. In addition, the inhibition of growth at 1.6e-05 ppm in the test with Septoria tritici (setting [4]) came out at 4%. The inhibition of growth at 0.001 ppm in the test with Septoria tritici (setting [10]) was 4%.
For `CCC(Cn1cncn1)(OC)c1ccc(Oc2ccc(Cl)cc2)cc1Cl` (centres unmarked) [I-21, 1-[2-[2-chloro-4-(4-chlorophenoxy)phenyl]-2-methoxy-butyl]-1,2,4-triazole], the inhibition of growth at […] in the test with Leptosphaeria nodorum (0.00025 ppm) was 12%; with Alternaria solani (setting [11]), 2%; with Botrytis cinerea (setting [6]), 18%. In addition, the inhibition of growth at 0.001 ppm in the test with Leptosphaeria nodorum was determined as 22%. The inhibition of growth at 63 ppm in the test on Phytophthora infestans (setting [1]) turned out to be 29%. Moreover, the inhibition of growth at 0.004 ppm in the test on Alternaria solani (setting [8]) is 5%. Further, the inhibition of growth at 0.016 ppm in the test on Pyricularia oryzae (setting [3]) turned out to be 1%. The inhibition of growth at 4e-06 ppm in the test on Septoria tritici (setting [4]) came out at 17%. Further, the inhibition of growth at 6.3e-05 ppm with Septoria tritici (setting [5]) was 25%.
In the case of `CCCC(Cn1cncn1)(OC)c1ccc(Oc2ccc(Cl)cc2)cc1Cl` (centres unmarked) [I-22, 1-[2-[2-chloro-4-(4-chlorophenoxy)phenyl]-2-methoxy-pentyl]-1,2,4-triazole], the inhibition of growth at […] worked out at 25% in the test on Leptosphaeria nodorum (0.063 ppm), 25% with Alternaria solani (setting [12]) and 1% in the test with Botrytis cinerea (setting [7]). Further, the inhibition of growth at 63 ppm in the test on Phytophthora infestans (setting [1]) came out at 41%. For the same compound, in the test on Septoria tritici (setting [10]), the inhibition of growth at 0.001 ppm was determined as 10%. Besides, in the test with Botrytis cinerea (setting [13]), the inhibition of growth at 1 ppm was determined as 34%.
As to `C#CCC(O)(Cn1cncn1)c1ccc(Oc2ccc(Cl)cc2)cc1Cl` (centres unmarked) [I-25, 2-[2-chloro-4-(4-chlorophenoxy)phenyl]-1-(1,2,4-triazol-1-yl)pent-4-yn-2-ol], the inhibition of growth at 4e-06 ppm in the test on Leptosphaeria nodorum (0.000004 ppm) stood at 14%; in the test with Alternaria solani (setting [2]) it was 7%. In addition, the results for the inhibition of growth at 1.6e-05 ppm with Leptosphaeria nodorum (0.000016 ppm) and in the test on Septoria tritici (setting [4]) were 22% and 12%, respectively. In the test with Phytophthora infestans (setting [1]), the inhibition of growth at 16 ppm came out at 0%. The inhibition of growth at 6.3e-05 ppm with Alternaria solani (setting [2]) is 1%; in the test on Septoria tritici (setting [5]), 12%. For the same compound, the inhibition of growth at 0.001 ppm with Septoria tritici (setting [10]) worked out at 37%. Also, in the test with Botrytis cinerea (Botrytis cinerea, 168 h, 0.004 ppm, read-out: Observed efficacy), the inhibition of growth at 0.004 ppm is 9%. Also, the inhibition of growth at 0.016 ppm with Botrytis cinerea (Botrytis cinerea, 168 h, 0.016 ppm, read-out: Observed efficacy) was determined as 16%. The values for the inhibition of growth at […] in the test with Botrytis cinerea (setting [6]) and in the test with Botrytis cinerea (setting [7]) were 23% and 49%, respectively.
Regarding `COCC(O)(Cn1cncn1)c1ccc(Oc2ccc(F)cc2)cc1Cl` (centres unmarked) [I-27, 2-[2-chloro-4-(4-fluorophenoxy)phenyl]-1-methoxy-3-(1,2,4-triazol-1-yl)propan-2-ol], the inhibition of growth at […] in the test on Leptosphaeria nodorum (0.00025 ppm) worked out at 8%; in the test with Alternaria solani (setting [11]) it was 4%; in the test on Botrytis cinerea (setting [6]) it was 22%. The inhibition of growth at 0.001 ppm with Leptosphaeria nodorum is 6%; in the test on Alternaria solani (Alternaria solani, 168 h, 0.001 ppm, read-out: Observed efficacy), 0%; in the test with Septoria tritici (setting [10]), 9%. The inhibition of growth at 0.004 ppm with Leptosphaeria nodorum (0.004 ppm) stood at 15%; with Alternaria solani (setting [8]) it was 0%. Moreover, the inhibition of growth at 0.016 ppm came to 24% in the test on Leptosphaeria nodorum (0.016 ppm) and 12% in the test with Alternaria solani (setting [9]). Also, in the test on Phytophthora infestans (setting [1]), the inhibition of growth at 63 ppm is 31%. In addition, in the test on Pyricularia oryzae (setting [3]), the inhibition of growth at 1 ppm came out at 29%. The inhibition of growth at 1.6e-05 ppm in the test with Septoria tritici (setting [4]) turned out to be 7%. Moreover, the inhibition of growth at 6.3e-05 ppm in the test on Septoria tritici (setting [5]) was 6%.
As for `CO/C=C(/C(=O)OC)c1ccccc1Oc1cc(Oc2ccccc2C#N)ncn1` [II-3, azoxystrobin, reference compound], the Observed efficacy was determined as 2 in the test with Phytophthora infestans (0.016 ppm); 6 in the test on Alternaria solani (0.004 ppm); 14 in the test with Alternaria solani (0.016 ppm); 1 in the test on Pyricularia oryzae (0.004 ppm); 12 with Septoria tritici (0.001 ppm); 14 in the test on Botrytis cinerea (4 ppm). Further, the Observed efficacy in the test on Botrytis cinerea (16 ppm) worked out at 23.
Regarding `N#Cc1c(Cl)c(Cl)c(Cl)c(C#N)c1Cl` [II-11, chlorothalonil, reference compound], the inhibition of growth at 1 ppm in the test with Leptosphaeria nodorum came to 28%; with Botrytis cinerea (setting [13]) it was 23%. Further, the inhibition of growth at 0.016 ppm with Phytophthora infestans (setting [1]) was determined as 2%. The inhibition of growth at […] with Alternaria solani (setting [12]) was found to be 4%; in the test with Alternaria solani (setting [14]), 2%. Besides, the inhibition of growth at 4 ppm in the test on Botrytis cinerea (setting [15]) worked out at 41%.
For `Cc1ccc(-c2c(Cl)nc(C#N)n2S(=O)(=O)N(C)C)cc1` [II-12, cyazofamid, reference compound], the inhibition of growth at 0.004 ppm in the test with Phytophthora infestans (setting [1]) stood at 8%. The inhibition of growth at 4 ppm is 14% with Alternaria solani (setting [2]) and 9% in the test on Pyricularia oryzae (setting [3]). Moreover, the inhibition of growth at 16 ppm was determined as 35% in the test with Alternaria solani (Alternaria solani, 168 h, 16 ppm, read-out: Observed efficacy); 40% in the test on Septoria tritici (Zymoseptoria tritici, 168 h, 16 ppm, read-out: Observed efficacy); 24% in the test on Botrytis cinerea (setting [16]).
`CN1COCN(Cc2cnc(Cl)s2)/C1=N\[N+](=O)[O-]` [II-42c, thiamethoxam, reference compound]: the inhibition of growth at 1 ppm in the test on Leptosphaeria nodorum stood at 22%; in the test with Phytophthora infestans (setting [1]), 1%; in the test with Alternaria solani (Alternaria solani, 168 h, 1 ppm, read-out: Observed efficacy), 10%; in the test with Pyricularia oryzae (setting [3]) it was 56%; in the test with Septoria tritici (Zymoseptoria tritici, 168 h, 1 ppm, read-out: Observed efficacy), 57%. Besides, the results for the inhibition of growth at 4 ppm in the test with Leptosphaeria nodorum (4 ppm), with Phytophthora infestans (setting [1]) and with Alternaria solani (setting [2]) were 51%, 2% and 51%, respectively. Moreover, in the test with Alternaria solani (setting [14]), the inhibition of growth at […] turned out to be 8%. Also, in the test on Pyricularia oryzae (setting [3]), the inhibition of growth at 0.016 ppm is 3%. Besides, in the test with Botrytis cinerea (Botrytis cinerea, 168 h, 63 ppm, read-out: Observed efficacy), the inhibition of growth at 63 ppm was found to be 8%.
Regarding `CC(C)C1C2CCC1c1c(NC(=O)c3cn(C)nc3C(F)F)cccc12` (centres unmarked) [II-50, isopyrazam, reference compound], the Observed efficacy with Phytophthora infestans (16 ppm) was found to be 23; in the test with Alternaria solani (0.016 ppm), 15; in the test with Pyricularia oryzae (0.004 ppm), 1; with Botrytis cinerea (0.016 ppm) it was 6.
Regarding `COC(=O)N(OC)c1ccccc1COc1ccn(-c2ccc(Cl)cc2)n1` [II-66, pyraclostrobin, reference compound], the inhibition of growth at 0.016 ppm with Phytophthora infestans (setting [1]) stood at 9%. For the same compound, the inhibition of growth at 0.004 ppm in the test on Alternaria solani (setting [8]) turned out to be 8%; in the test with Pyricularia oryzae (setting [3]), 59%; in the test on Septoria tritici (Zymoseptoria tritici, 168 h, 0.004 ppm, read-out: Observed efficacy), 37%. Moreover, the inhibition of growth at 0.001 ppm in the test on Septoria tritici (setting [10]) was determined as 12%. Moreover, the inhibition of growth at 6.3e-05 ppm in the test with Septoria tritici (setting [5]) came out at 7%. Besides, the inhibition of growth at 4 ppm in the test on Botrytis cinerea (setting [15]) is 29%. Besides, the inhibition of growth at 16 ppm in the test with Botrytis cinerea (setting [16]) worked out at 66%.
Take `CC1(C)CCC(Cc2ccc(Cl)cc2)C1(O)Cn1cncn1` (centres unmarked) [Metconazol]: the Observed efficacy is 2 with Phytophthora infestans (0.004 ppm), 17 in the test with Alternaria solani (0.016 ppm), 58 in the test on Pyricularia oryzae (1 ppm) and 24 in the test on Septoria tritici (0.016 ppm).
Consider `CC(C)(C)C(O)(CCc1ccc(Cl)cc1)Cn1cncn1` (centres unmarked) [Tebuconazol], for which the Observed efficacy is 1 with Phytophthora infestans (0.016 ppm), 8 in the test on Alternaria solani (0.016 ppm), 5 with Septoria tritici (0.016 ppm) and 9 in the test on Botrytis cinerea (0.016 ppm).
